According to PMC4979060, “Structural basis of metallo-β-lactamase, serine-β-lactamase and penicillin-binding protein inhibition by cyclic boronates” (Nature Communications, 2016):

What was measured:
K. pneumoniae Ecl8 pSU18 = assay: MIC by broth microdilution; type: cell-based; settings: Klebsiella pneumoniae, ECL8PSU18, read-out: 2 MIC
Source text: (§1) Bacterial strains: E. coli ATCC 25922 (ref. [35]) and K. pneumoniae NCTC 5055 (ref. [36]) were used as reference strains. K. pneumoniae Ecl8 (ref. [16]) and its ramR knock-out[37] were used as previously described. K. pneumoniae strain IR8 (ref. [40]), and E. coli strains IR10 and IR60 (ref. [17]) were generous gifts of Prof. T.R. Walsh. Plasmid pSU18:NDM-1 contains the complete blaNDM-1 open reading frame, together with its promoter, cloned into plasmid pSU18 (ref. [41]). The recombinant plasmid was made by PCR amplifying the blaNDM-1 gene and surrounding sequences from E. coli IR10 with primers NDM1F 5′- […] -3′ and NDM1R 5′- GGCGATGACAGCATCATC -3′, TA cloning the amplicon into pCR2.1 TOPO (Invitrogen) and subcloning into pSU18 using BamHI and XbaI.
(§2) MIC values were determined by broth microdilution, in triplicate, in cation-adjusted Mueller Hinton broth (Sigma) according to the Clinical Laboratory Standards Institute (CLSI) guidelines. Experiments were carried out in microtitre plates (Corning) containing the medium plus meropenem (Sequoia Research Products, Pangbourne, UK) and/or inhibitor 2 as appropriate. Chloramphenicol (20 μg ml^−1) was included in assays of strains (K. pneumoniae Ecl8 and derivative) that carried pSU18 plasmids or derivatives (pSU18:NDM-1) to ensure maintenance of plasmids throughout. Inhibitor 2 was dissolved in DMSO to 100 mg ml^−1 and diluted in broth. The final concentration of DMSO in the assays was kept constant at 0.01% (experiments using 10 μg ml^−1 inhibitor) or 0.03% (experiments using 25 μg ml^−1 inhibitor). Plates were incubated overnight at 37 °C for 18–24 h and absorbance at 600 nm read using a Polarstar Omega (BMG LabTech) plate reader.

E. coli ATCC 25922 = assay: MIC by broth microdilution; type: cell-based; settings: data not shown
Source text: as §1, §2

[1] = system: K pneumoniae Ecl8 ΔramR pSU18; assay: MIC by broth microdilution; type: cell-based; settings: Klebsiella pneumoniae, read-out: 2 MIC
Source text: as §1, §2

E. coli IR60 = assay: MIC by broth microdilution; type: cell-based; settings: Escherichia coli, IR60, read-out: 2 MIC
Source text: as §1, §2

E. coli IR10 = assay: MIC by broth microdilution; type: cell-based; settings: Escherichia coli, IR10, read-out: 2 MIC
Source text: as §1, §2

[2] = system: K pneumoniae Ecl8 ΔramR pSU18:NDM-1; assay: MIC by broth microdilution; type: cell-based; settings: Klebsiella pneumoniae, read-out: 2 MIC, 2 alone; Ecl8 ΔramR pSU18:NDM-1 (blaSHV-1; blaNDM-1)
Source text: as §1, §2

K. pneumoniae NCTC 5055 = assay: MIC by broth microdilution; type: cell-based; settings: data not shown
Source text: as §1, §2

[3] = system: K. pneumoniae Ecl8 pSU18:NDM-1; assay: MIC by broth microdilution and checkerboard; type: cell-based; settings: Klebsiella pneumoniae, read-out: 2 MIC, 2 alone; Ecl8 pSU18:NDM-1 (blaSHV-1; blaNDM-1)
Source text: as §1, §2

PBP 3 = molecular target: T1, PBP 3 (Pseudomonas aeruginosa, UniProt G3XD46); assay: PBP inhibition assay (nitrocefin substrate), PBP 3; type: biochemical; settings: NI = no inhibition at 100 μM, read-out: IC50 (μM)/pIC50 (converted)
T1 construct: made in house; host or cells: E. coli
T1 sequence (G3XD46 whole entry): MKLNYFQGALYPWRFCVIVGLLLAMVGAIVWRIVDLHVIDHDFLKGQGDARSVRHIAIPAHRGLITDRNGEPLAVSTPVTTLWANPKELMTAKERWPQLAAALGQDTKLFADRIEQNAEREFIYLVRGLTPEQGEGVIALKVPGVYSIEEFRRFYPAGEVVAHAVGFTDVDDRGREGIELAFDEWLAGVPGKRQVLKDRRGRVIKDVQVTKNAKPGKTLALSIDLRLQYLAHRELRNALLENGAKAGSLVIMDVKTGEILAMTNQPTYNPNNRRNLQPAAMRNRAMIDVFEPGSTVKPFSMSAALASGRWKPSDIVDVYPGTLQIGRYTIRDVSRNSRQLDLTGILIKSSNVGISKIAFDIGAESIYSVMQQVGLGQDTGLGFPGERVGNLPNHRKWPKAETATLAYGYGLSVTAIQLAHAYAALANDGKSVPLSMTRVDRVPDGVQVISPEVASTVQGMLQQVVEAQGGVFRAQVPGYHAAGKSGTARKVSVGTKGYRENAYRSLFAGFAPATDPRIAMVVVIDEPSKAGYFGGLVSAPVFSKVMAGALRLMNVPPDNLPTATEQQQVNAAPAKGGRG
Procedure: (§3) Kinetic and inhibition analyses, and ^19F NMR studies[10] against bacterial β-lactamases were performed as described. The FC-5 cephalosporin[9] was used as substrate for BcII, VIM-2, IMP-1, NDM-1, SPM-1, TEM-1 and OXA-10, meropenem[28] for CphA and nitrocefin[34] for PBP 3 and PBP 5.
(§4) In brief IC50 values were determined by preincubation of the appropriate amount of enzyme with the cyclic boronates in the assay buffers for 10 min at room temperature prior to the initiation of the assay by the addition of the appropriate substrate. The enzyme concentrations used are the following: 1 nM BcII, 100 nM VIM-2, 10 nM IMP-1, 10 nM NDM-1, 1 nM SPM-1, 1 nM TEM-1, 1 nM OXA-10, 2.5 nM CphA, 4 μM PBP 3 and 5 μM PBP 5; note that the final concentrations are stated. The assay buffers used are the following: 50 mM HEPES, pH 7.2 supplemented with 1 μg BSA, 1 μg ZnSO4 and 0.01% Triton for BcII, VIM-2, IMP-1, NDM-1 and SPM-1, 15 mM MES, pH 6.5 for CphA, 50 mM HEPES, pH 7.2 supplemented with 200 mM NaCl and 0.01% Triton 100 for TEM-1, 100 mM sodium phosphate, pH 7.2 supplemented with 50 mM NaHCO3 and 0.01% Triton 100 for OXA-10 and 50 mM HEPES, pH 7.2 supplemented with 200 mM NaCl and 0.01% Triton 100 for PBP 3 and PBP 5. The amount of substrates used is the following: 5 μM for BcII, VIM-2, IMP-1, NDM-1 and SPM-1, 10 μM for TEM-1 and OXA-10, 125 μM for CphA and 25 μM for PBP 3 and PBP 5; note that the final concentrations are stated.
(§5) The experiments were performed using a PHERAstar FS microplate reader (BMG Labtech) at room temperature (24–25 °C). All enzymes and inhibitors were prepared in the specific assay buffer. The kinetic values in this study are the means from at least three independent measurements; at least nine different concentrations of the inhibitor were used to determine the kinetic parameters (IC50). The IC50 values were determined using the software package Graph Prism 5.

OXA-10 = molecular target: T2, OXA-10 (Pseudomonas aeruginosa, UniProt P14489); assay: Fluorogenic β-lactamase inhibition assay (FC-5 substrate), OXA-10; type: biochemical
T2 construct: made in house; host or cells: E. coli
T2 sequence (P14489 20-266, species assumed): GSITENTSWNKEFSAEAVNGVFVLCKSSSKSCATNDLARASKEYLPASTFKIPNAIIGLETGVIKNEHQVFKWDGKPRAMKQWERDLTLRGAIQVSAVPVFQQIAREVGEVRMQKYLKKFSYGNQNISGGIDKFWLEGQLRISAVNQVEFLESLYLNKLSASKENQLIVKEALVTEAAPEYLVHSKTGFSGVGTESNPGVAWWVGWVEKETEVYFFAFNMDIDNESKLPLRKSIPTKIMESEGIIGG
Procedure: as §3, §4, §5

PBP 5 (dacA) = molecular target: T3, PBP 5 (dacA) (Escherichia coli, UniProt P0AEB2); assay: PBP inhibition assay (nitrocefin substrate), PBP 5; type: biochemical
T3 construct: made in house; host or cells: E. coli
T3 sequence (P0AEB2 30-403): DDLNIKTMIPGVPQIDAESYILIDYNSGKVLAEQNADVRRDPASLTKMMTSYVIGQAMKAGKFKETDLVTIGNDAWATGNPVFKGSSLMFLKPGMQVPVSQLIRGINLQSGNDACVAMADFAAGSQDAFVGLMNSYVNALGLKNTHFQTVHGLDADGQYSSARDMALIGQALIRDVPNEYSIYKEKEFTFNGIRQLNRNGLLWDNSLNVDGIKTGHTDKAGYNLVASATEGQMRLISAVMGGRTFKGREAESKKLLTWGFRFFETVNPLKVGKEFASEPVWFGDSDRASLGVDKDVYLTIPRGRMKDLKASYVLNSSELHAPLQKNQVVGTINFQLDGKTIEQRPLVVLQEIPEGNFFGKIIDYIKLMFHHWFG
Procedure: as §3
In brief IC50 values were determined by preincubation of the appropriate amount of enzyme with the cyclic boronates in the assay buffers for 10 min at room temperature prior to the initiation of the assay by the addition of the appropriate substrate. The enzyme concentrations used are the following: 1 nM BcII, 100 nM VIM-2, 10 nM IMP-1, 10 nM NDM-1, 1 nM SPM-1, 1 nM TEM-1, 1 nM OXA-10, 2.5 nM CphA, 4 μM PBP 3 and 5 μM PBP 5; note that the final concentrations are stated. […]
The experiments were performed using a PHERAstar FS microplate reader (BMG Labtech) at room temperature (24–25 °C). […] The IC50 values were determined using the software package Graph Prism 5.

## NCc1ccc(C(=O)N[C@H]2Cc3cccc(C(=O)O)c3O[B-]2(O)O)cc1 [compound 2]
K. pneumoniae Ecl8 pSU18
  MIC: > 128 µg/mL
E. coli ATCC 25922
  antibacterial activity of 2 alone (highest concentration without activity): > 128 µg/mL
[1]
  MIC: > 128 µg/mL
E. coli IR60
  MIC: > 128 µg/mL
E. coli IR10
  MIC: > 128 µg/mL
[2]
  MIC: > 128 µg/mL
K. pneumoniae NCTC 5055
  antibacterial activity of 2 alone (highest concentration without activity): > 128 µg/mL
[3]
  MIC: > 128 µg/mL
PBP 3
  IC50: > 100 µM
OXA-10
  pIC50: 5.2
OXA-10; 10 min preincubation
  IC50: 5.1 µM
PBP 5 (dacA)
  pIC50: 8.7
PBP 5 (dacA); 10 min preincubation
  IC50: 0.0016 µM
